# Data from paper PMC12469269, “Investigating SMR Peptide Interactions with Breast Cancer-Associated Proteins” (International Journal of Molecular Sciences, 2025).
# Where no end group is shown, it is not given here.
# How the values were obtained:
# Jurkat T cells = assay: exNef secretion, Mortalin scanning peptides (Figure 5A), Jurkat T cells; assay type: cell-based; conditions: 50 ng / 200 μL peptide, 250 ng Nef-GFP plasmid, 48 h, GFP fluorescence in media; SMRmut = 100; mean of three independent experiments
# Protocol: To determine whether Mortalin-derived peptides can inhibit the secretion of extracellular Nef (exNef), Jurkat T cells were co-transfected with wild-type Nef-GFP and various scanning peptides derived from the substrate-binding domain of Mortalin (#56–#67). SMRwt and SMRmut peptides were included as positive and negative controls, respectively. After 48 h of incubation, GFP fluorescence in the culture media was measured as a proxy for exNef secretion.
# (§1) Figure 5 Effects of Mortalin-derived peptides on inhibition of exNef and tumor exosome secretion. (A) Jurkat T cells were co-transfected with 250 ng of wild-type Nef-GFP plasmid and 50 ng of Mortalin-derived scanning peptides (#56–#67), including SMRwt and SMRmut as positive and negative controls. After 48 h, GFP fluorescence in culture media was measured to assess exNef secretion. Data represent mean ± SD from three independent experiments. Statistical significance was determined using a two-sample t-test assuming equal variances. (B) MDA-MB-231 cells were transfected with 50 ng of Mortalin-derived scanning peptides (#56–#67), including SMRwt and SMRmut controls. Cells were labeled with N-Rh-PE and incubated for 48 h. N-Rh-PE fluorescence in culture media was measured to assess exosome secretion. Data represent mean ± SD from three independent experiments. Statistical significance was determined using a two-sample t-test assuming equal variances. TEXT PRINTED IN THE PICTURE: (A) #56: Jurkat GFP (%): 117.84 (50 ng / 200 μL) | (A) #57: Jurkat GFP (%): 96.69 (50 ng / 200 μL) | (A) #58: Jurkat GFP (%): 91.89 (50 ng / 200 μL) | (A) #59: Jurkat GFP (%): 95.49 (50 ng / 200 μL) | (A) #60: Jurkat GFP (%): 98.25 (50 ng / 200 μL) | (A) #61: Jurkat GFP (%): 0.65 (50 ng / 200 μL) | (A) #62: Jurkat GFP (%): 0.51 (50 ng / 200 μL) | (A) #63: Jurkat GFP (%): 98.02 (50 ng / 200 μL) | (A) #64: Jurkat GFP (%): 95.37 (50 ng / 200 μL) | (A) #65: Jurkat GFP (%): 96.34 (50 ng / 200 μL) | (A) #66: Jurkat GFP (%): 92.28 (50 ng / 200 μL) | (A) #67: Jurkat GFP (%): 99.56 (50 ng / 200 μL) | (A) SMRwt: Jurkat GFP (%): 0.51 (50 ng / 200 μL) | (A) SMRmut: Jurkat GFP (%): 100 (50 ng / 200 μL) | (B) #56: MDA-MB-231 N-Rh-PE (%): 66.31 (50 ng / 200 μL) | (B) #57: MDA-MB-231 N-Rh-PE (%): 79.73 (50 ng / 200 μL) | (B) #58: MDA-MB-231 N-Rh-PE (%): 68.11 (50 ng / 200 μL) | (B) #59: MDA-MB-231 N-Rh-PE (%): 67.81 (50 ng / 200 μL) | (B) #60: MDA-MB-231 N-Rh-PE (%): 72.32 (50 ng / 200 μL) | (B) #61: MDA-MB-231 N-Rh-PE (%): 7.53 (50 ng / 200 μL) | (B) #62: MDA-MB-231 N-Rh-PE (%): 5.36 (50 ng / 200 μL) | (B) #63: MDA-MB-231 N-Rh-PE (%): 75.39 (50 ng / 200 μL) | (B) #64: MDA-MB-231 N-Rh-PE (%): 73.49 (50 ng / 200 μL) | (B) #65: MDA-MB-231 N-Rh-PE (%): 81.65 (50 ng / 200 μL) | (B) #66: MDA-MB-231 N-Rh-PE (%): 81.79 (50 ng / 200 μL) | (B) #67: MDA-MB-231 N-Rh-PE (%): 89.82 (50 ng / 200 μL) | (B) SMRwt: MDA-MB-231 N-Rh-PE (%): 6.11 (50 ng / 200 μL) | (B) SMRmut: MDA-MB-231 N-Rh-PE (%): 100 (50 ng / 200 μL)
# To identify peptide sequences within Mortalin that modulate extracellular vesicle (EV) secretion, a panel of scanning peptides was synthesized and tested in Jurkat T cells. The peptides, listed in Table 1, were custom-synthesized with an average purity of 75% and used in transfection assays to evaluate their impact on EV release. Jurkat T cells (3 × 10^5) were co-transfected with 50 ng of individual Mortalin peptides […] 250 ng of wild-type Nef-GFP plasmid using Chariot™ transfection reagent. Transfection efficiency was confirmed by fluorescence microscopy after 48 h. EV secretion was assessed by measuring GFP fluorescence in the culture media, and statistical analysis was performed using unpaired two-factor t-tests (p < 0.05). Panel of Mortalin scanning peptides developed and tested for their effect EV secretion and Table S2. Mortalin Scanning Peptides Used in Transfection Assays, see the Supplementary Information. […]
# MDA-MB-231 cells = assay: Tumor exosome secretion, Mortalin scanning peptides (Figure 5B), MDA-MB-231; assay type: cell-based, human; conditions: 50 ng / 200 μL peptide, transfected, 48 h, N-Rh-PE fluorescence in media; SMRmut = 100; mean of three independent experiments
# Protocol: as §1
# To assess the effect of Mortalin-derived peptides on tumor exosome secretion, MDA-MB-231 breast cancer cells were transfected with the same panel of scanning peptides and labeled with N-Rh-PE to track exosome release. Following incubation, N-Rh-PE fluorescence in the culture media was measured as a proxy for extracellular exosome levels. SMRwt and SMRmut peptides were again used as controls. […] Statistical analysis confirmed significant differences: SMRmut vs. #61 (p < 7.20 × 10^−7), SMRmut vs. #62 (p < 5.70 × 10^−7), and SMRmut vs. SMRwt (p < 5.96 × 10^−7).
# Nef protein = Nef protein (Human immunodeficiency virus type 1 group M subtype B, UniProt P03404); assay: SPR binding of Mortalin peptides to immobilized Nef; design: species or system HIV-1; conditions: for kon: pH 7.4, read-out: ka (Nef)
# Protocol: Figure 8 depicts the SPR results for Mortalin peptides binding to Nef. The Nef protein was immobilized as a ligand on the chip surface, and the peptides were used as analytes to flow into the buffer solution.
# (§2) SPR experiments were conducted using a Biacore T200 instrument (Cytiva, Marlborough, MA, USA). CM5 sensor chips (Cytiva) were used to immobilize proteins and run subsequent binding assays at 25 °C. To investigate the direct binding of Nef and SMR peptides to Vimentin and Mortalin and SMR competition studies, both proteins were immobilized as ligands on the active flow cells (FCs) using standard amine coupling chemistry. One reference FC was prepared using the same surface chemistry, and no proteins were immobilized onto this reference FC. Vimentin was immobilized to a level of ~2500 RU to 7200 RU in the presence of 4 mM of HCl and Mortalin to a level of ~11,900 RU to 13,200 RU in the presence of 10 mM of sodium acetate buffer at pH 4.5. Analytes were then injected (Nef, SMR peptides, Mortalin peptides, and mixtures of […]). One 20 s pulse of 1:500 H3PO4 (H3PO4:ddH2O) was injected for surface regeneration. To investigate the direct binding of Mortalin peptides to Nef, Nef was immobilized as a ligand to ~450 RU using thiol coupling chemistry. A reference FC was created using a method similar to the one above. Mortalin peptides were then injected as analytes. One 20 s pulse of 1 M NaCl was injected for surface regeneration. HBS-P (10 mM Hepes, pH 7.4; 150 mM NaCl; 0.05% surfactant P20) was used as the immobilization running buffer during the immobilization of all ligands. HBS-P was also used to dilute analytes and as a running buffer during all analyte–ligand binding assays. SPR data used for analysis was both blank (signals due to HBS-P only) and reference-subtracted (signals corresponding to reference FCs). Sensorgrams recorded for kinetics analyses were fitted to a 1:1 binding model using the Biacore T200 evaluation software version 3.2.1. GraphPad Prism version 10.4.0 was used to plot all graphs.
# MCF-7 BC cells = assay: Exosome secretion by N-Rh-PE (Figure 4B), MCF-7; assay type: cell-based, human; conditions: 100 ng/mL peptide, 24 h, no transfection, N-Rh-PE fluorescence, three independent experiments
# Protocol: (§3) Figure 4 Effects of SMR, Mortalin, and Vimentin peptides on tumor cell exosome secretion in MDA-MB-231 and MCF-7 breast cancer cells. MDA-MB-231 and MCF-7 BC cells (200 µL, 1 × 10^4 cells/mL) were seeded into a 96-well plate and treated with 100 ng/mL of either wild-type (wt) or mutant (mut) peptides of SMR, Mortalin, or Vimentin. Treatments were performed in RPMI-1640 medium without transfection, and cells were incubated at 37 °C for 24 h. The cells were then treated with 0.5 µM/mL of N-Rh-PE, incubated at 4 °C for 1 h, and washed with PBS. Fresh medium was also added. The cultures were incubated at 37 °C for an additional 24 h. N-Rh-PE refers to N-(Lissamine Rhodamine B sulfonyl) phosphatidyl-ethanolamine, a fluorescent lipid dye commonly used to label membranes and track vesicle trafficking. […] Exosome secretion was assessed by measuring the amount of N-Rh-PE, which corresponds to the number of exosomes released into the extracellular medium. Bar graphs show the relative exosome release level. Data represent the mean ± SD of three independent experiments.
# MDA-MB-231 BC cells = assay: Exosome secretion by N-Rh-PE (Figure 4A), MDA-MB-231; assay type: cell-based, human; conditions: 100 ng/mL peptide, 24 h, no transfection, N-Rh-PE fluorescence, three independent experiments
# Protocol: as §3
# [1] = target: T1, Recombinant Human GRP75/HSPA9B/Mortalin His Protein (Homo sapiens, UniProt P38646); assay: biochemical; assay type: binding
# T1 construct: His; purchased Novus Biologicals, LLC/R&D Systems NBC1-18380
# T1 sequence (P38646 47-679): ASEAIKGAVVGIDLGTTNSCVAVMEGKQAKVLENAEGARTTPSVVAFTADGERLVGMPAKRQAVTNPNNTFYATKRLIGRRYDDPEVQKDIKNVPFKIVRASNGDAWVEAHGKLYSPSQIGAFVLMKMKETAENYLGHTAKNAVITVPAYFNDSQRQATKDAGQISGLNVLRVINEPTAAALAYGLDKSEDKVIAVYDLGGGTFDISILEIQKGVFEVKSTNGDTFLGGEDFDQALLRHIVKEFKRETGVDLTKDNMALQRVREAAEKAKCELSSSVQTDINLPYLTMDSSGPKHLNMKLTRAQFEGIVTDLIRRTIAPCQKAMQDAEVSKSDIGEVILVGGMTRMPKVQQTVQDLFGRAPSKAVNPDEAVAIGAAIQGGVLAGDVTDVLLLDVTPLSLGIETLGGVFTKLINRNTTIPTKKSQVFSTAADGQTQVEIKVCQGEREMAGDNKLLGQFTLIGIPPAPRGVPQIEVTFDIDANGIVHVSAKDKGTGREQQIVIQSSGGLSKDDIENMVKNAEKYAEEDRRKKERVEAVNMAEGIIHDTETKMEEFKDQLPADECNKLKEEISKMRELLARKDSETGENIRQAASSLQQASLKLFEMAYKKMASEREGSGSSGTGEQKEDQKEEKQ
# Text: (§4) We conducted SPR experiments to characterize and quantify the direct binding interactions between Nef and SMR peptides (the analytes) and the target proteins, Vimentin and Mortalin (the immobilized ligands). We did so by injecting the analytes at various concentrations over the chip surface with the immobilized ligands.
# (§5) Recombinant Human Vimentin Protein, CF (catalog # 2105-VI-100), Recombinant Human GRP75/HSPA9B/Mortalin His Protein (catalog # NBC1-18380), and Recombinant Human HSPA8/HSC71/Hsc70 His Protein (Catalog # NBPI-30278) were purchased from Novus Biologicals, LLC/R&D Systems, Centennial, CO, USA. These proteins were used for SPR.
# as §2
# [2] = target: T2, Recombinant Human Vimentin Protein (Homo sapiens, UniProt P08670); assay: biochemical; assay type: binding
# T2 construct: purchased Novus Biologicals, LLC/R&D Systems 2105-VI-100
# T2 sequence (P08670 whole entry): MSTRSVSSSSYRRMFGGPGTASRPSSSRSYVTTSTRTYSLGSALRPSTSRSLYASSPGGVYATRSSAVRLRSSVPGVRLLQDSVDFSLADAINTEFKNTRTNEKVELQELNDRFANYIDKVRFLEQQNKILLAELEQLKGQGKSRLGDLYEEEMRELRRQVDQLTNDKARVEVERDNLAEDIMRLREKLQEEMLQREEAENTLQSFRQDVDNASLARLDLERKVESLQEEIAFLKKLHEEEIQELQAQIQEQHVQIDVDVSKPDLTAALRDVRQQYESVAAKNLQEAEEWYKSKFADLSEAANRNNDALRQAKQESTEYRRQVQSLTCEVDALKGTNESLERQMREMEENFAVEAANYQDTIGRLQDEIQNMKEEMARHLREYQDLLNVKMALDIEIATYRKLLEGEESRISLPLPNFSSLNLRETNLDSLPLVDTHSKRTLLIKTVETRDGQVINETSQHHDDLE
# Text: as §4, §5, §2
Substance,Jurkat GFP (exNef secretion) (Jurkat T cells) [%],MDA-MB-231 N-Rh-PE (exosome secretion) (MDA-MB-231 cells) [%],other results
"AVNMAEGIIHDTETKMEEFK [#59, Mortalin scanning peptide 59]",95.49,67.81,
"AYKKMASEREGSGSSGTGEQ [#66, Mortalin scanning peptide 66]",92.28,81.79,
"DTETKMEEFKDQLPADECNK [#60, Mortalin scanning peptide 60]",98.25,72.32,
"EDRRKKERVEAVNMAEGIIH [#58, Mortalin scanning peptide 58]",91.89,68.11,
"ENIRQAASSLQOASLKLFEM [#64, Mortalin scanning peptide 64]",95.37,73.49,
GGLSKDDIENMVKNAEKYAE [#56],,,Kd (Nef protein): 76.9 µM; kon (Nef protein): 370 M⁻¹ s⁻¹
"GSGSSGTGEQKEDQKEEKQ [#67, Mortalin scanning peptide 67]",99.56,89.82,
LKEEISKMRELLARKDSETG [#62],,,Kd (Nef protein): 1.9 µM; kon (Nef protein): 1970 M⁻¹ s⁻¹
"LLARKDSETGENIRQAASSL [#63, Mortalin scanning peptide 63]",98.02,75.39,
"LYEEEMRE [VIM-wt, Vimentin-wt peptide (LYEEEMRE)]",,,"exosome release vs untreated, in words (MCF-7 BC cells): significantly decreased exosome release; p, UT vs. peptide, exosome release (MCF-7 BC cells): < 0.00005; exosome release vs untreated, in words (MDA-MB-231 BC cells): significantly decreased exosome release; p, UT vs. peptide, exosome release (MDA-MB-231 BC cells): < 0.00005"
"MVKNAEKYAEEDRRKKERVE [#57, Mortalin scanning peptide 57]",96.69,79.73,
"QOASLKLFEMAYKKMASERE [#65, Mortalin scanning peptide 65]",96.34,81.65,
"VGFPV [SMRwt, ^66Val-Gly-Phe-Pro-Val^70]",,,"Kd [1]: 20.7 µM; kon ([1]; pH 7.4, read-out: ka (Mortalin)): 671 M⁻¹ s⁻¹; Kd [2]: 6.63 µM; kon ([2]; pH 7.4, read-out: ka (Vimentin)): 6410 M⁻¹ s⁻¹"
